The source of these data is PMC7076739, “Cytotoxycity and antiplasmodial activity of phenolic derivatives from Albizia zygia (DC.) J.F. Macbr. (Mimosaceae)” (BMC Complementary Medicine and Therapies, 2020).

Broadly, the IC50 is the concentration at which inhibition is half-maximal.

The subject of one experiment is A2058. Description: MTT cytotoxicity assay, A2058. Type of experiment: cell-based. As to conditions: Homo sapiens, A2058, 72 h, read-out: IC50 A2058. An excerpt:
(§1) Anticancer assays: Five tumor cell lines (MiaPaca-2 (CRL-1420), a carcinoma pancreatic […]; Hep G2 (HB-80665), a perpetual cell line which was derived from the liver tissue of a […] with a well-differentiated hepatocellular carcinoma; A549 (CCL-185), a carcinoma lung from […]; A2058 (CRL-11147), Human skin melanoma from an adult derived from lymph node and MCF-7 (HTB-22), a breast adenocarcinoma […]) were obtained from ATCC. The MTT (3-(4,5-dimethylthiazol-2-yl)-2,5-diphenyltetrazoliumbromide) colorimetric assay, which measures mitochondrial metabolic activity, was employed to estimate the amount of living cells. According to the huge amount of celles to be plated, SelecT (TAP Biosystems, Royston, UK), a cell culture robotic system was used to process ten thousand cells per well (for 72 h assay). Cells were seeded at a concentration of 1× 10^4 cells/well in 200 μl culture medium and incubated at 37 °C in 5% CO2. After 24 h, the automated liquid-handling system Biomek FX (Beckman Coulter, Pasadena, CA, USA) was used to replace the medium with a final volume of 200 μL and 1 μL of compound (dilution 1/200) and to add controls to the plates and which were then be incubated for 72 h. The test compounds were examined in triplicate with serial two-fold dilutions. After incubation, MTT solution was prepared at 5 mg/mL in PBS 1X and then diluted at 0.5 mg/mL in MEM without phenol red. The sample solution in wells was removed and 100 μL of MTT dye was added to each well. The plates were gently shaken and incubated for 3 h at 37 °C in 5% CO2 incubator. The supernatant was removed and 100 μL of DMSO 100% was added. The plates were gently shaken to solubilize theoriginated formazan and absorbance at 570 nm was read in a Victor2 Wallac spectrofluorometer (PerkinElmer, Waltham, MA, USA). IC50 values were calculated as the concentration that decreases 50% of the cell viability using Genedata Screener software (Genedata AG, Basel, Switzerland). Curve fitting followed the Smart Fit strategy with Hill model selection.

The next experiment concerns A-549. The experiment can be described thus: MTT cytotoxicity assay, A-549. The experiment is classed as cell-based. As to conditions: Homo sapiens, read-out: IC50 A-549.
Description: as §1

Another experiment relates to HepG2. The experiment can be described thus: MTT cytotoxicity assay, HepG2. The experiment is classed as cell-based. As to conditions: Homo sapiens, read-out: IC50 HepG2.
Description: as §1
(Tetrazolium assays rely on reduction of a dye to a coloured formazan, in cell work by metabolically active cells.)

The next experiment has as its system P. falciparum strain 3D7. Description: P. falciparum 3D7 lactate dehydrogenase assay. Type of experiment: cell-based, Plasmodium falciparum. As to conditions: for IC50: read-out: IC50 against P. falciparum; for times more active than natural precursor quercetin 3-O-α-L-rhamnopyranoside (2) against P. falciparum: antiplasmodial activity, strain 3D7; for SI = IC50 HepG2 cell/IC50 P. falciparum: selectivity index, HepG2 vs P. falciparum. As to the method:
P. falciparum 3D7 lactate dehydrogenase assay: Parasites of the P. falciparum strain 3D7 were grown in fresh group 0 positive human erythrocytes, obtained from the Centro Regional de Transfusion Sanguınea-SAS (Granada, Spain). This assay was performed in duplicate for each compound using a sixteen (16) point dose response curve (½ serial dilutions) with concentrations starting from 50 μM until 1.5 nM to determine the IC50s of the compounds. Adding 25 μL of P. falciparum 3D7 parasite culture (per well) containing parasitized red blood cells at 0.25% parasitaemia and 2% haematocrit in RPMI-1640, 5% Albumax II, 2% […] 0.3% glutamine and 150 μM hypoxanthine and incubated at 37 °C for 72 h with 5% CO2, 5% O2 and 95% N2. For negative and positive growth controls, 10 μM chloroquine and complete parasite growth medium were respectively used. The final readouts of the assay was done by measuring the absorbance of the reactions at 650 nm in an Envision plate reader (Perkin Elmer, USA) and the results analysed by Genedata software (GenedataAG, Basel, Switzerland), parasite growth was measured by LDH assay as previously described.
The natural compounds isolated from the leaves of A. zygia as well as their semi-synthetic derivatives were tested against Plasmodium falciparum (Table 1) using a microdilution method in liquid medium as previously described.

The subject of a further experiment is MiaPaca-2. The experiment can be described thus: MTT cytotoxicity assay, MiaPaca-2. The experiment is classed as cell-based. As to conditions: Homo sapiens, read-out: IC50 MiaPaca-2.
Description: as §1

For a further experiment, the system named is MCF-7. The experiment can be described thus: MTT cytotoxicity assay, MCF-7. The experiment is classed as cell-based. As to conditions: Homo sapiens, MCF7, 72 h, read-out: IC50 MCF-7.
Description: as §1

Setting [1] is: Plasmodium falciparum, 3D7, 72 h, strain 3D7, 72 h, LDH readout.
[2] abbreviates: Plasmodium falciparum, 3D7, 72 h.

Like-named read-outs stand apart in the source and are kept apart here.

For `CC(=O)OCC1OC(Oc2cc(OC(C)=O)ccc2CC(=O)O)C(OC(C)=O)C(OC(C)=O)C1OC(C)=O` (stereo not shown) [Compound 8], the half-maximal inhibitory concentration (IC50) was 40.2 ± 0.25 µM in the experiment on A2058 (MTT, 72 h); 20.1 ± 0.25 µM in the experiment with A-549 (A549, MTT, 72 h); 40.2 ± 0.25 µM in the experiment with HepG2 (HepG2, MTT, 72 h); above 100 µM with P. falciparum strain 3D7 (setting [1]); 18.5 ± 0.25 µM in the experiment on MiaPaca-2 (MIA PaCa-2, MTT, 72 h); 40.2 ± 0.25 µM with MCF-7 (MTT, 72 h).

Take `CC(=O)OC1C(C)OC(Oc2c(-c3ccc(O)c(O)c3)oc3cc(O)cc(O)c3c2=O)C(OC(C)=O)C1OC(C)=O` (stereo not shown) [Compound 9]: the IC50 in the experiment on A2058 (MTT, 72 h) came out at 12.2 ± 0.25 µM; with A-549 (A549, MTT, 72 h) it was 34.8 ± 0.25 µM; with HepG2 (HepG2, MTT, 72 h), 22.6 ± 0.25 µM; in the experiment on P. falciparum strain 3D7 (setting [1]), 7.47 ± 0.25 µM; in the experiment on P. falciparum strain 3D7 (strain 3D7, 72 h, LDH readout), 7.5 ± 0.25 µM; in the experiment on MiaPaca-2 (MIA PaCa-2, MTT, 72 h), 17.4 ± 0.25 µM. Also, the IC50 in the experiment on MCF-7 (MTT, 72 h) worked out at 10.8 ± 0.25 µM. For the same compound, in the experiment with P. falciparum strain 3D7, the “times more active than natural precursor quercetin 3-O-α-L-rhamnopyranoside (2) against P. falciparum” value was “over 3 times”.

As for `COc1cccc2c1C(=O)c1c(O)c3c(c(O)c1C2=O)C[C@@](O)(C(=O)CO)C[C@@H]3O[C@H]1C[C@H](N)[C@H](O)[C@H](C)O1` [Doxorubicin, reference compound], the IC50 in the experiment on A2058 (MTT, 72 h) is below 7e-05 µM; with A-549 (A549, MTT, 72 h) it was below 7e-05 µM; with HepG2 (HepG2, MTT, 72 h), below 7e-05 µM; in the experiment on MiaPaca-2 (MIA PaCa-2, MTT, 72 h), below 7e-05 µM; in the experiment on MCF-7 (MTT, 72 h) it was below 7e-05 µM.

In the case of `C[C@@H]1O[C@@H](Oc2c(-c3ccc(O)c(O)c3)oc3cc(O)cc(O)c3c2=O)[C@H](O)[C@H](O)[C@H]1O` [Compound 2, quercetin 3-O-α-L-rhamnopyranoside], the half-maximal inhibitory concentration (IC50) came to 87.5 ± 0.25 µM with A2058; 89.5 ± 0.25 µM with A-549 (A549, 72 h); 87.5 ± 0.25 µM with HepG2 (HepG2, 72 h); 25.1 ± 0.25 µM in the experiment with P. falciparum strain 3D7 (setting [2]); 87.5 ± 0.25 µM in the experiment with MiaPaca-2 (MIA PaCa-2, 72 h); 87.5 ± 0.25 µM with MCF-7. Besides, the “SI = IC50 HepG2 cell/IC50 P. falciparum” value in the experiment with P. falciparum strain 3D7 is “(3.49)”.

With `O=C(O)Cc1ccc(O)cc1OC1OC(CO)C(O)C(O)C1O` [Compound 1, 2-O-β-D-glucopyranosyl-4-hydroxyphenylacetic acid], the IC50 in the experiment on A2058 (MTT, 72 h) is 66.7 ± 0.25 µM; in the experiment on A-549 (A549, MTT, 72 h) it was 121.2 ± 0.25 µM; in the experiment on HepG2 (HepG2, MTT, 72 h), 121.2 ± 0.25 µM; in the experiment with P. falciparum strain 3D7 (setting [1]), above 100 µM; in the experiment with MiaPaca-2 (MIA PaCa-2, MTT, 72 h) it was 30.3 ± 0.25 µM; in the experiment with MCF-7 (MTT, 72 h) it was 42.7 ± 0.25 µM.

Take `CC(=O)Oc1cc(O)c2c(=O)c(OC3OC(C)C(OC(C)=O)C(OC(C)=O)C3OC(C)=O)c(-c3ccc(O)c(O)c3)oc2c1` (stereo not shown) [Compound 10]: the IC50 in the experiment on A-549 (A549, MTT, 72 h) came out at 30.5 ± 0.25 µM; in the experiment on HepG2 (HepG2, MTT, 72 h) it was 64.9 ± 0.25 µM; with P. falciparum strain 3D7 (setting [1]), 6.77 ± 0.25 µM; with P. falciparum strain 3D7 (strain 3D7, 72 h, LDH readout), 6.8 ± 0.25 µM; with MiaPaca-2 (MIA PaCa-2, MTT, 72 h), 64.9 ± 0.25 µM. In addition, the “times more active than natural precursor quercetin 3-O-α-L-rhamnopyranoside (2) against P. falciparum” value with P. falciparum strain 3D7 is on record as “over 3 times”.

With `C[C@@H]1O[C@@H](Oc2ccc(-c3oc4cc(O)cc(O)c4c(=O)c3O[C@@H]3O[C@@H](C)[C@H](O)[C@@H](O)[C@H]3O)cc2O)[C@H](O)[C@H](O)[C@H]1O` [Compound 4, quercetin 3,4′-di-O-α-L-rhamnopyranoside], the half-inhibitory concentration (IC50) in the experiment with A2058 (MTT, 72 h) was 34.6 ± 0.25 µM; with A-549 (A549, MTT, 72 h), 34.6 ± 0.25 µM; in the experiment on HepG2 (HepG2, MTT, 72 h), 17.3 ± 0.25 µM; in the experiment with P. falciparum strain 3D7 (setting [1]), above 100 µM; in the experiment on MiaPaca-2 (MIA PaCa-2, MTT, 72 h), 17.3 ± 0.25 µM; in the experiment on MCF-7 (MTT, 72 h) it was 17.3 ± 0.25 µM.

Take `C[C@@H]1O[C@@H](Oc2c(-c3ccc(O)cc3)oc3cc(O)cc(O)c3c2=O)[C@H](O)[C@H](O)[C@H]1O` [Compound 3, kaempferol 3-O-α-L-rhamnopyranoside]: the IC50 turned out to be 46.4 ± 0.25 µM in the experiment with A2058 (MTT, 72 h); 23.2 ± 0.25 µM with A-549 (A549, MTT, 72 h); 23.2 ± 0.25 µM in the experiment on HepG2 (HepG2, MTT, 72 h); 19 ± 0.25 µM with P. falciparum strain 3D7 (setting [1]); 46.4 ± 0.25 µM with MiaPaca-2 (MIA PaCa-2, MTT, 72 h); 46.4 ± 0.25 µM in the experiment with MCF-7 (MTT, 72 h). For the same compound, in the experiment with P. falciparum strain 3D7, the “SI = IC50 HepG2 cell/IC50 P. falciparum” value is reported as “(1.22)”.

Turning to `CCN(CC)CCCC(C)Nc1ccnc2cc(Cl)ccc12` (stereo not shown) [Chloroquine, chloroquine, reference compound], in the experiment with P. falciparum strain 3D7 (setting [2]), the IC50 was 0.00296 µM.

On to `CC(=O)OCC1OC(Oc2cc(O)ccc2CC(=O)O)C(OC(C)=O)C(OC(C)=O)C1OC(C)=O` (stereo not shown) [Compound 7], for which the IC50 with A2058 (MTT, 72 h) is 37 ± 0.25 µM; in the experiment with A-549 (A549, MTT, 72 h) it was 20.1 ± 0.25 µM; in the experiment on HepG2 (HepG2, MTT, 72 h), 37 ± 0.25 µM; in the experiment on P. falciparum strain 3D7 (setting [1]), above 100 µM; in the experiment with MiaPaca-2 (MIA PaCa-2, MTT, 72 h), 10 ± 0.25 µM; in the experiment with MCF-7 (MTT, 72 h), 37 ± 0.25 µM.

With `C[C@@H]1O[C@@H](Oc2ccc(-c3oc4cc(O)cc(O)c4c(=O)c3O[C@@H]3O[C@@H](C)[C@H](O)[C@@H](O)[C@H]3O)cc2)[C@H](O)[C@H](O)[C@H]1O` [Compound 5, kaempferol 3,4′-di-O-α-L-rhamnopyranoside], the IC50 is 33.7 ± 0.25 µM with A2058 (MTT, 72 h); 33.7 ± 0.25 µM with A-549 (A549, MTT, 72 h); 16.8 ± 0.25 µM in the experiment on HepG2 (HepG2, MTT, 72 h); above 100 µM in the experiment on P. falciparum strain 3D7 (setting [1]); 16.8 ± 0.25 µM with MiaPaca-2 (MIA PaCa-2, MTT, 72 h); 33.7 ± 0.25 µM in the experiment with MCF-7 (MTT, 72 h).
